For data set [1] the following is noted: reason for not progressing in clinical development; cited from earlier work.
The subject of another data set is HCT15 tumor cells. As to the kind of experiment: HCT15 tumor model in athymic nude mice (IgG resistant colon tumor model). The conditions noted are these: 3 mg/kg IgM 5 times daily i.v.; compared with 3 mg/kg anti-DR5 IgG and 80 mg/kg Irinotecan. Type of data set: in vivo.

Procedure for HCT15 tumor cells: Combination therapy with an anti-DR5 IgM antibody and standard of care Irinotecan was assessed in an HCT15 tumor model as follows.
In the first experiment, anti-DR5 IgG, anti-DR5 IgM, and Irinotecan monotherapies were compared. Athymic nude mice were subcutaneously implanted with 1×10^7 HCT15 tumor cells.
When the tumors reached 150-200 mm^3, the animals were dosed intravenously with either vehicle 5 times daily, 3 mg/kg of anti-DR5 IgM 5 times daily, 80 mg/kg of Irinotecan (Sigma I1406) 3 times within the first week, or the combined anti-DR5 IgM and Irinotecan dosing regimens.

For `CC1(C)CCC(c2ccc(Cl)cc2)=C(CN2CCN(c3ccc(C(=O)NS(=O)(=O)c4ccc(N[C@H](CCN5CCOCC5)CSc5ccccc5)c(S(=O)(=O)C(F)(F)F)c4)cc3)CC2)C1` [ABT-263, 4-(4-{[2-(4-Chlorophenyl)-5,5-dimethyl-1-cyclohexen-1-yl]methyl}-1-piperazinyl)-N-[(4-{[(2R)-4-(4-morpholinyl)-1-(phenylsulfany)-2-butanyl]amino}-3-[(trifluoromethyl)sulfonyl]phenyl)sulfonyl]benzamide], in data set [1], the side effects entry was “dose-limiting side effects”. With `CN(C)CC[C@H](CSc1ccccc1)Nc1ccc(S(=O)(=O)NC(=O)c2ccc(N3CCN(Cc4ccccc4-c4ccc(Cl)cc4)CC3)cc2)cc1[N+](=O)[O-]` [ABT-737, 4-{4-[(4′-Chloro-2-biphenylyl)methyl]-1-piperazinyl}-N-[(4-{[(2R)-4-(dimethylamino)-1-(phenylsulfanyl)-2-butanyl]amino}-3-nitrophenyl)sulfonyl]benzamide], in data set [1], the bioavailability entry is listed as “low” and the solubility result is on record as “low”.

B1: anti-DR5 IgM Mab #2: anti-DR5 IgM comprising VH and VL SEQ ID NO: 5 and SEQ ID NO: 6, constructed as in US 2018-0009897 (antibody, V domains shown)
VH: QVQLQESGPGLVKPSQTLSLTCTVSGGSISSGDYFWSWIRQLPGKGLECIGHIHNSGTTYYNPSLKSRVTISVDTSKKQFSLRLSSVTAADTAVYYCARDRGGDYYYGMDVWGQGTTVTVSS
VL: EIVLTQSPGTLSLSPGERATLSCRASQGISRSYLAWYQQKPGQAPSLLIYGASSRATGIPDRFSGSGSGTDFTLTISRLEPEDFAVYYCQQFGSSPWTFGQGTKVEIK
modifications: IgM constant regions
For B1, the “efficacy of monotherapies (tumor volume, overall survival)” value in the data set with HCT15 tumor cells is reported as “most effective”.

These data come from patent US20200392239A1, “USE OF A MULTIMERIC ANTI-DR5 BINDING MOLECULE IN COMBINATION WITH A CHEMOTHERAPEUTIC AGENT FOR TREATING CANCER” (IGM Biosciences, Inc., priority 2018, published 2020).
